Test results from patent US20220281848A1, “PYRAZOLE-SUBSTITUTED PYRROLIDINONES AS HERBICIDES” (FMC Corporation, priority 2019, published 2022).

System: plants
Test: Test D pre-emergence, other plants of Tables D1 and D3
Assay type: in vivo
Conditions: pre-emergence, 100=total damage, 0=no damage
Method in brief: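 Seeds treated with herbicide safener; sown in soil; glasshouse, 16 h light, 65% humidity. Sprayed day 1 (pre) or ~day 12 (post). Spray in 0.2% v/v adjuvant. Scored 0–100 damage: 20 DAA pre, 15 d post.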

Q: For `CN1CC(c2cc(C(F)(F)F)n(C)n2)C(C(=O)Nc2ccc(F)nc2F)C1=O` (racemic) [Compound 22], which “damage to plant, ALOMY” value (rate 15, 20 DAA) is on record?
A: 0

Q: And the “damage to plant, AVEFA” value (rate 15, 20 DAA)?
A: 0

Q: What about the “damage to plant, BEAVA” value (rate 15, 20 DAA) of the same molecule?
A: 0

Q: What about the “damage to plant, BROTE” value (rate 15, 20 DAA) of the same molecule?
A: 0

Q: What about the “damage to plant, BRSNN” value (rate 15, 20 DAA) of the same molecule?
A: 0

Q: What about the “damage to plant, CHEAL” value (rate 15, 20 DAA) of the same molecule?
A: 0

Q: What about the “damage to plant, GALAP” value (rate 15, 20 DAA) of the same molecule?
A: 0

Q: What about the “damage to plant, HORVW” value (rate 15, 20 DAA) of the same molecule?
A: 0

Q: What about the “damage to plant, KCHSC” value (rate 15, 20 DAA) of the same molecule?
A: 0

Q: What about the “damage to plant, LOLPE” value (rate 15, 20 DAA) of the same molecule?
A: 0

Q: What about the “damage to plant, POAAN” value (rate 15, 20 DAA) of the same molecule?
A: 0

Q: What about the “damage to plant, POLCO” value (rate 15, 20 DAA) of the same molecule?
A: 0

Q: And the “damage to plant, SINAR” value (rate 15, 20 DAA)?
A: 0

Q: What about the “damage to plant, STEME” value (rate 15, 20 DAA) of the same molecule?
A: 0

Q: What about the “damage to plant, VERPE” value (rate 15, 20 DAA) of the same molecule?
A: 0

Q: And the “damage to plant, ALOMY” value (rate 30, 20 DAA)?
A: 0

Q: What about the “damage to plant, AVEFA” value (rate 30, 20 DAA) of the same molecule?
A: 0

Q: What about the “damage to plant, BEAVA” value (rate 30, 20 DAA) of the same molecule?
A: 0

Q: And the “damage to plant, BROTE” value (rate 30, 20 DAA)?
A: 0

Q: And the “damage to plant, BRSNN” value (rate 30, 20 DAA)?
A: 0

Q: What about the “damage to plant, CHEAL” value (rate 30, 20 DAA) of the same molecule?
A: 0

Q: And the “damage to plant, GALAP” value (rate 30, 20 DAA)?
A: 0

Q: What about the “damage to plant, HORVW” value (rate 30, 20 DAA) of the same molecule?
A: 0

Q: What about the “damage to plant, KCHSC” value (rate 30, 20 DAA) of the same molecule?
A: 0

Q: And the “damage to plant, LOLPE” value (rate 30, 20 DAA)?
A: 0

Q: What about the “damage to plant, POAAN” value (rate 30, 20 DAA) of the same molecule?
A: 0

Q: And the “damage to plant, POLCO” value (rate 30, 20 DAA)?
A: 0

Q: And the “damage to plant, SINAR” value (rate 30, 20 DAA)?
A: 0

Q: And the “damage to plant, STEME” value (rate 30, 20 DAA)?
A: 0

Q: What about the “damage to plant, VERPE” value (rate 30, 20 DAA) of the same molecule?
A: 0

Q: And the “damage to plant, ALOMY” value (rate 60, 20 DAA)?
A: 0

Q: What about the “damage to plant, AVEFA” value (rate 60, 20 DAA) of the same molecule?
A: 0

Q: And the “damage to plant, BEAVA” value (rate 60, 20 DAA)?
A: 0

Q: What about the “damage to plant, BROTE” value (rate 60, 20 DAA) of the same molecule?
A: 0

Q: What about the “damage to plant, BRSNN” value (rate 60, 20 DAA) of the same molecule?
A: 0

Q: And the “damage to plant, CHEAL” value (rate 60, 20 DAA)?
A: 20

Q: And the “damage to plant, GALAP” value (rate 60, 20 DAA)?
A: 0

Q: What about the “damage to plant, HORVW” value (rate 60, 20 DAA) of the same molecule?
A: 0

Q: And the “damage to plant, KCHSC” value (rate 60, 20 DAA)?
A: 0

Q: And the “damage to plant, LOLPE” value (rate 60, 20 DAA)?
A: 0

Q: And the “damage to plant, POAAN” value (rate 60, 20 DAA)?
A: 0

Q: And the “damage to plant, POLCO” value (rate 60, 20 DAA)?
A: 0

Q: And the “damage to plant, SINAR” value (rate 60, 20 DAA)?
A: 0

Q: What about the “damage to plant, STEME” value (rate 60, 20 DAA) of the same molecule?
A: 10

Q: What about the “damage to plant, VERPE” value (rate 60, 20 DAA) of the same molecule?
A: 0

Q: What about the “damage to plant, ALOMY” value (rate 130, 20 DAA) of the same molecule?
A: 0

Q: And the “damage to plant, AVEFA” value (rate 130, 20 DAA)?
A: 0

Q: What about the “damage to plant, BEAVA” value (rate 130, 20 DAA) of the same molecule?
A: 0

Q: And the “damage to plant, BROTE” value (rate 130, 20 DAA)?
A: 0

Q: What about the “damage to plant, BRSNN” value (rate 130, 20 DAA) of the same molecule?
A: 0

Q: And the “damage to plant, CHEAL” value (rate 130, 20 DAA)?
A: 10

Q: And the “damage to plant, GALAP” value (rate 130, 20 DAA)?
A: 0

Q: And the “damage to plant, HORVW” value (rate 130, 20 DAA)?
A: 0

Q: And the “damage to plant, KCHSC” value (rate 130, 20 DAA)?
A: 0

Q: And the “damage to plant, LOLPE” value (rate 130, 20 DAA)?
A: 10

Q: And the “damage to plant, POAAN” value (rate 130, 20 DAA)?
A: 20

Q: And the “damage to plant, POLCO” value (rate 130, 20 DAA)?
A: 0

Q: And the “damage to plant, SINAR” value (rate 130, 20 DAA)?
A: 0

Q: And the “damage to plant, STEME” value (rate 130, 20 DAA)?
A: 10

Q: What about the “damage to plant, VERPE” value (rate 130, 20 DAA) of the same molecule?
A: 20

Q: What about the “damage to plant, ALOMY” value (rate 250, 20 DAA) of the same molecule?
A: 0

Q: And the “damage to plant, AVEFA” value (rate 250, 20 DAA)?
A: 0

Q: What about the “damage to plant, BEAVA” value (rate 250, 20 DAA) of the same molecule?
A: 0

Q: What about the “damage to plant, BROTE” value (rate 250, 20 DAA) of the same molecule?
A: 0

Q: And the “damage to plant, BRSNN” value (rate 250, 20 DAA)?
A: 0

Q: And the “damage to plant, CHEAL” value (rate 250, 20 DAA)?
A: 80

Q: And the “damage to plant, GALAP” value (rate 250, 20 DAA)?
A: 0

Q: And the “damage to plant, HORVW” value (rate 250, 20 DAA)?
A: 0

Q: And the “damage to plant, KCHSC” value (rate 250, 20 DAA)?
A: 0

Q: And the “damage to plant, LOLPE” value (rate 250, 20 DAA)?
A: 20

Q: What about the “damage to plant, POAAN” value (rate 250, 20 DAA) of the same molecule?
A: 40

Q: And the “damage to plant, POLCO” value (rate 250, 20 DAA)?
A: 10

Q: What about the “damage to plant, SINAR” value (rate 250, 20 DAA) of the same molecule?
A: 0

Q: What about the “damage to plant, STEME” value (rate 250, 20 DAA) of the same molecule?
A: 30

Q: And the “damage to plant, VERPE” value (rate 250, 20 DAA)?
A: 30

Q: What about the “damage to plant, ALOMY” value (rate 500, 20 DAA) of the same molecule?
A: 20

Q: What about the “damage to plant, AVEFA” value (rate 500, 20 DAA) of the same molecule?
A: 0

Q: And the “damage to plant, BEAVA” value (rate 500, 20 DAA)?
A: 0

Q: And the “damage to plant, BROTE” value (rate 500, 20 DAA)?
A: 0

Q: What about the “damage to plant, BRSNN” value (rate 500, 20 DAA) of the same molecule?
A: 0

Q: What about the “damage to plant, CHEAL” value (rate 500, 20 DAA) of the same molecule?
A: 40

Q: What about the “damage to plant, GALAP” value (rate 500, 20 DAA) of the same molecule?
A: 0

Q: What about the “damage to plant, HORVW” value (rate 500, 20 DAA) of the same molecule?
A: 0

Q: What about the “damage to plant, KCHSC” value (rate 500, 20 DAA) of the same molecule?
A: 0

Q: And the “damage to plant, LOLPE” value (rate 500, 20 DAA)?
A: 30

Q: What about the “damage to plant, POAAN” value (rate 500, 20 DAA) of the same molecule?
A: 60

Q: And the “damage to plant, POLCO” value (rate 500, 20 DAA)?
A: 20

Q: What about the “damage to plant, SINAR” value (rate 500, 20 DAA) of the same molecule?
A: 0

Q: And the “damage to plant, STEME” value (rate 500, 20 DAA)?
A: 40

Q: What about the “damage to plant, VERPE” value (rate 500, 20 DAA) of the same molecule?
A: 100
